Assay: gradient 5% acetonitrile 3 min, to 50% in 2 min, to 85% in 15 min, held 3 min, 100 µL/min
Conditions: column: Zorbax Extend-C18 2.1 x 50 mm; eluents: water / acetonitrile, 0.1% formic acid
Procedure, shortened: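 Using water and acetonitrile that each contained 0.1% formic acid, mixtures of ~100 pure standards were separated at 100 μL/min on a Zorbax Extend-C18 column (2.1 × 50 mm, 1.8 μm). The HPLC fed a quadrupole time-of-flight mass spectrometer working in positive and negative ionization mode, with dead and dwell volumes of 40 μL and 900 μL. Data were acquired over 3 months. Retention time was read from computationally picked adduct peaks after manual inspection of each.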

RP-LC retention time	SMILES
776 s	CCC(C)C(NC(=O)Cc1ccccc1Cl)C(=O)Nc1nc2ccccc2[nH]1 (stereo unspecified)
864 s	O=C(C1=NN(Cc2ccccc2)c2cc(Cl)ccc2S1(=O)=O)N1CCOCC1
636 s	O=C(NCCCN1CCCC1=O)c1nc(Nc2ccc(F)cc2)c2ccccc2n1
748 s	COc1ccc(-c2cn3c(CC(=O)Nc4ccccc4OC)csc3n2)cc1
866 s	CCCn1cc(CCNS(=O)(=O)c2cccc(C)c2)c2cccnc21
729 s	O=C1NC2(CCN(C(=O)c3ccccc3)CC2)Nc2cc(Cl)ccc21
960 s	O=C(CN1C(=O)C(C(=O)N2CCCCC2)Sc2ccccc21)N1CCN(c2ccccc2F)CC1 (stereo unspecified)
719 s	COc1cccc(CNC(=O)C(=O)NCC2CCN(C(=O)NC(C)(C)C)CC2)c1
872 s	CN1C(=O)C2(CCN(C(=O)Cc3ccc(Cl)cc3)C2)c2ccccc21 (stereo unspecified)
705 s	CCn1c(C2CCN(S(=O)(=O)c3cccc4nsnc34)C2)nc2cccnc21 (stereo unspecified)
1010 s	COc1ccc(-n2c(=O)n(C)c(=O)c3cc(C(=O)Nc4cccc(Cl)c4)cnc32)cc1
610 s	CCN1CCN(CCNC(=O)c2cc3n(n2)CCCN(Cc2ccc(Cl)cc2)C3=O)CC1
567 s	COC(=O)c1ccc(NC(=O)C(=O)NCC2CCN(Cc3cccs3)CC2)cc1
881 s	Cc1ccc(F)cc1NC(=O)c1cnc2c(c1)c(=O)n(C)c(=O)n2-c1ccccc1
576 s	CN1CCn2ccnc2C12CCN(C(=O)Nc1ccccc1Cl)CC2
756 s	COc1ccc(CNC(=O)CN2C(=O)C3CCCCN3c3ccc(C(=O)N(C)C)cc32)c(OC)c1 (stereo unspecified)
927 s	COc1ccc(OC)c(NC(=O)NCc2cccn2Cc2ccccc2)c1
860 s	Cc1ccc(NC(=O)C(C)C2CCN(C(=O)Nc3ccccc3)CC2)cc1 (stereo unspecified)
946 s	CCS(=O)(=O)N1CC(=O)N(c2ccc(Cl)cc2C)C(C)(C(=O)NC2CCCCC2)C1 (stereo unspecified)
616 s	Cc1ccc(Nc2nc(N3CCN(C(=O)c4ccco4)CC3)nc3[nH]ncc23)cc1
715 s	CCNC(=O)C1CCCN(c2nc3ncn(CC(=O)Nc4c(C)cc(C)cc4C)c(=O)c3s2)C1 (stereo unspecified)

RP-LC retention time	SMILES
665 s	O=C(Nc1nc2c(s1)CN(C(=O)Cn1c(=O)oc3ccccc31)CC2)C1CCCO1 (stereo unspecified)
737 s	CS(=O)(=O)c1cccc(CNc2nc(Nc3ccc4c(c3)CCC(=O)N4)ncc2C(F)(F)F)c1
738 s	CC(=O)N1CCc2cc(CNS(=O)(=O)c3ccccc3F)ccc21
702 s	S=C1NCCN1c1ccccc1Cl
690 s	O=C(c1ccco1)N1CCCC(c2nnc(-c3cccs3)o2)C1 (stereo unspecified)
833 s	Cc1csc(-c2ccc(N3CCN(C(=O)c4ccc5ccccc5n4)CC3)nc2)n1
842 s	COc1cc2c(cc1OC)C(C(=O)NCC1COc3ccccc3O1)C(c1cccs1)N(C)C2=O (stereo unspecified)
909 s	Cc1ccc(NC(=O)Cn2c(=O)nc(N3CCC(C)CC3)c3ccccc32)cc1C
573 s	Cc1ccc(N2CC(NC(=O)Nc3ncccc3C)CC2=O)cc1 (stereo unspecified)
603 s	CS(=O)(=O)c1cccc(C(=O)Nc2nnc(-c3ccno3)o2)c1
1040 s	O=S(=O)(c1ccc2c(c1)OCCO2)N1CCCn2nc(-c3cccc(Cl)c3)cc2C1
862 s	CCSc1nnc(NC(=O)C2CCN(S(=O)(=O)c3ccc4c(c3)sc(=O)n4C)CC2)s1
981 s	Cc1ccc(Cn2c(N3CCCC(C(=O)NCc4ccccc4F)C3)nc3ccsc3c2=O)cc1 (stereo unspecified)
683 s	Cc1cc(C)n(CCNC(=O)CSCc2ccccc2)n1
822 s	CC(C)c1noc(-c2ccn3c(CC(=O)N4CCc5ccccc5C4)nnc3c2)n1
896 s	CCCCS(=O)(=O)c1cc2c(cc1NC(=O)c1ccccc1Br)n(C)c(=O)n2C
588 s	O=C(c1cccnc1)N1CCN(c2nnnn2-c2ccccc2)CC1
918 s	O=C(c1ccc2cc[nH]c2c1)N1CCN(C(=O)c2nnn3c2COC(c2ccc(Cl)cc2)C3)CC1 (stereo unspecified)
970 s	O=C(c1cccc(Cl)c1)N1CCC2(CC1)N=C(c1cccc(Br)c1)NO2
885 s	CCOc1ccc(N(C)C(=O)C2CCN(S(=O)(=O)c3ccc4c(c3)sc(=O)n4C)CC2)cc1
708 s	O=C(NCc1ccco1)c1ccc(-c2ccc(N3CCSCC3)nc2)cc1

RP-LC retention time	SMILES
748 s	Cn1nc(C(=O)N2CCN3CCS(=O)(=O)N(C4CC4)C(=O)C3C2)c2ccccc21 (stereo unspecified)
816 s	CS(=O)(=O)N1CCCC(C(=O)NC2CC2)CCNC(=O)CC1 (stereo unspecified)
1020 s	C=CCNC(=O)c1cnn(-c2cc(-c3nc(C(C)(C)C)no3)ccn2)c1C
909 s	COc1ccc(S(=O)(=O)N2CCc3c(c(-c4nnc(-c5ccccc5)o4)nn3C)C2)cc1
919 s	O=c1n(Cc2cccc(Cl)c2)nc2ccc(S(=O)(=O)N3CCCC3)cn12
600 s	CCOc1ccc2ncc(C(=O)c3ccc(OC)cc3)c(N3CCN(CC)CC3)c2c1
660 s	CCCCNC(=O)C1CC(=O)N(c2n[nH]c3cccc(F)c23)C1 (stereo unspecified)
606 s	O=C(Cn1c(=O)c2cccn2c2ccc(F)cc21)N1CCC(N2CCCCC2)CC1
987 s	O=C(Cn1nc2c(SC3CCCCC3)nccn2c1=O)NC1CCCCC1
966 s	COc1ccc(C(=O)Nc2nnc(SCc3nnc(-c4ccccc4C)o3)s2)cc1
564 s	CCN1CCN(CCNC(=O)Cn2c(=O)n(-c3ccccc3)c3ncccc32)CC1
1240 s	CCOc1ccc(-c2csc(NC(=O)CCCOc3ccccc3C)n2)cc1
807 s	Cc1ccc(NC(=O)N2C[C@@H](F)C[C@H]2C(=O)N2CCc3ccccc3C2)cc1
863 s	COc1ccc(OC)c(NC(=O)C2CCCN2S(=O)(=O)c2ccc3c(c2)CC(C)N3C(C)=O)c1 (stereo unspecified)
1130 s	O=S(=O)(c1cccc(F)c1)N1CCc2nc(-c3ccc(Cl)cc3)ncc2C1
1180 s	CC(C)c1cc(C(=O)Nc2ccc(F)c(F)c2)nc2ccnn12
682 s	O=S(=O)(c1cccc2nsnc12)N1CCCC1c1noc(CO)n1 (stereo unspecified)
978 s	COC(=O)c1sccc1NC(=O)NCC(c1ccc(OC)c(OC)c1)c1c[nH]c2ccccc12 (stereo unspecified)
1090 s	CCOc1ccc(-c2nc(C3CC(=O)N(c4ccc(C)cc4)C3)no2)cc1OCC (stereo unspecified)
651 s	Cc1ccc(F)cc1S(=O)(=O)N1CCC(C2CCNC2)CC1 (stereo unspecified)
726 s	CCOC(=O)c1cccc(Nc2c(-c3ccc(C(=O)O)cc3)nc3cnccn23)c1

RP-LC retention time	SMILES
984 s	c1ccc(CCc2nc3nccc(-c4ccc5c(c4)OCCCO5)n3n2)cc1
1050 s	CCSc1nnc(-c2nn(C)c3c2CN(S(=O)(=O)c2cccc(Cl)c2C)CC3)n1CC
679 s	CC(=O)c1sc(NC(=O)c2ccccc2[N+](=O)[O-])nc1C
813 s	Cn1nc(CNC(=O)c2ccc(F)c(F)c2)c2ccccc21
1030 s	CCOc1ccc(-c2noc(Cn3cnc4c(cnn4-c4cc(Cl)ccc4C)c3=O)n2)cc1OC
689 s	COC(=O)C1CCN(C(=O)Cc2csc(Nc3ccc(F)cc3)n2)CC1
1180 s	COc1ccc(OC)c(-c2csc(-c3nnn(-c4cccc(Cl)c4)c3N)n2)c1
727 s	CCCC(=O)Nc1ccc2c(c1)CN(C(=O)c1c(F)cccc1Cl)C(C(=O)N(C)C)C2 (stereo unspecified)
827 s	Cc1nc2sc(C)c(C)n2c(=O)c1NC(=O)COc1ccc(Cl)cc1Cl
976 s	COc1ccc(-c2ccc(=O)n(Cc3nc(-c4cccc(Cl)c4)no3)n2)cc1OC
985 s	Cc1cc(C(=O)Nc2nc3c(C)cc(Cl)cc3s2)on1
744 s	Cc1cc2nn(CC(=O)NCc3ccc(F)cc3)c(=O)n2c(-c2ccccc2)n1
604 s	CCN1CCN(CCNC(=O)c2cc(=O)n3c(nc4ccccc43)s2)CC1
709 s	COCCCNC(=O)N1CCCN(C2=NS(=O)(=O)C(c3ccc(F)cc3)=C2C)CC1
969 s	CCc1ccc(CNC(=O)Cn2ccc3ccc(N4CCOCC4)nc32)cc1
713 s	CCOC(=O)C1CCN(c2cc3c(cc2NC(=O)NC(C)C)n(C)c(=O)n3C)CC1
819 s	CC(=O)Nc1ccc(-c2nc(-c3ccc4c(c3)oc(=O)n4C)no2)cc1
962 s	CC(NC(=O)Cc1cccn1-c1ccc(F)cc1)c1ccccc1 (stereo unspecified)
814 s	CCc1cccc(C)c1Nc1c(-c2ccc(C(=O)NC(C)C)cc2)nc2cnccn12
812 s	CC(NC(=O)c1ccc(CN2CCN(Cc3ccccc3)C(=O)C2=O)cc1)c1ccccc1 (stereo unspecified)
644 s	O=C(NCCCN1CCOCC1)c1cc2occc2c(Nc2ccccc2)n1

SMILES	RP-LC retention time
Cc1nc(-c2csc(S(=O)(=O)N3CCC(C(=O)N4CCC5(CC4)OCCO5)CC3)c2)no1	765 s
Oc1ccc2c3c1O[C@H]1c4oc5ccccc5c4C[C@@]4(O)C(C2)N(CC2CC2)CCC314 (stereo partly specified)	702 s

Reference: the METLIN SMRT retention time set (Domingo-Almenara et al. 2019)
